The assay concerns the target T1, SlyD (EcSlyD) (Escherichia coli, UniProt P0A9K9).
T1 construct: residues 1–165, lacking the unstructured C-terminal tail
The assay is described as follows: intrinsic fluorescence titration; supported by 2D 1H-15N HSQC NMR titration, in-cell NMR and PPIase inhibition (Ki […]). It is filed as binding.

This note sets out measurements from article PMC5296862, “Targeting the molecular chaperone SlyD to inhibit bacterial growth with a small molecule” (Scientific Reports, 2017).

T1 sequence (P0A9K9 1-165): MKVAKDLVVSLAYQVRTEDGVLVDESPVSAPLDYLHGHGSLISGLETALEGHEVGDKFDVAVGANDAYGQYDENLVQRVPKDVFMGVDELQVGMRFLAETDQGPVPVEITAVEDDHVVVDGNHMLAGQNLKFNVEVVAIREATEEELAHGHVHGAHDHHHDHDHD

As for `[Cu+2].c1ccc(-c2cc(-c3c4ccccc4cc4ccccc34)cc(-c3ccccn3)n2)nc1.c1ccc(-c2cc(-c3c4ccccc4cc4ccccc34)cc(-c3ccccn3)n2)nc1` [Cu2+ complex], the Kd (usually the free concentration of one partner at which half of the binding sites on the other are occupied at equilibrium, for simple one-to-one binding) was 45 µM. In other words, the double-digit micromolar range.
